Source: patent publication US9487508B2, “SGC stimulators” (IRONWOOD PHARMACEUTICALS, INC., priority 2012, dated 2016)

Assays:
[1] = target: T1, Human soluble guanylate cyclase enzyme (hsGC) (Homo sapiens, UniProt Q02108+Q02153); experiment: Purified human sGC enzyme activity assay (without SNP); format: biochemical; conditions: 30 μM compound, fold change of specific activity vs DMSO control
T1 construct: purchased Enzo Inc. ALX-201-177
T1 sequence (Q02153 1-619): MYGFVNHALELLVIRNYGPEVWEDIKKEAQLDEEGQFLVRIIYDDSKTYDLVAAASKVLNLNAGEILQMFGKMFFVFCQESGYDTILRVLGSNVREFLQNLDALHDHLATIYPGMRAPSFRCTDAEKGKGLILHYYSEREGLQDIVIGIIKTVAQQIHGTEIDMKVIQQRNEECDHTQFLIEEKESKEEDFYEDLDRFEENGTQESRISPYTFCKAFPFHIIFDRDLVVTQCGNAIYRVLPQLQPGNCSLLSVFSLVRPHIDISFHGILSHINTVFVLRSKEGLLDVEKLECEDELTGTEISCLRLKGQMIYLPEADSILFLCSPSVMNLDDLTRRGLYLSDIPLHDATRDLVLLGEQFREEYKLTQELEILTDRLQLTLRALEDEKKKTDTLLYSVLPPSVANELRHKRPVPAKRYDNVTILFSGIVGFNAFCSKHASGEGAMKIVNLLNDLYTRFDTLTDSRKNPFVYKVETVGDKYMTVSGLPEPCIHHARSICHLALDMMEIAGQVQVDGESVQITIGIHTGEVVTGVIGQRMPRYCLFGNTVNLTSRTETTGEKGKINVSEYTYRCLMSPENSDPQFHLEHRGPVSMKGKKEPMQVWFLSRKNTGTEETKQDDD
T1 sequence (Q02108 1-690): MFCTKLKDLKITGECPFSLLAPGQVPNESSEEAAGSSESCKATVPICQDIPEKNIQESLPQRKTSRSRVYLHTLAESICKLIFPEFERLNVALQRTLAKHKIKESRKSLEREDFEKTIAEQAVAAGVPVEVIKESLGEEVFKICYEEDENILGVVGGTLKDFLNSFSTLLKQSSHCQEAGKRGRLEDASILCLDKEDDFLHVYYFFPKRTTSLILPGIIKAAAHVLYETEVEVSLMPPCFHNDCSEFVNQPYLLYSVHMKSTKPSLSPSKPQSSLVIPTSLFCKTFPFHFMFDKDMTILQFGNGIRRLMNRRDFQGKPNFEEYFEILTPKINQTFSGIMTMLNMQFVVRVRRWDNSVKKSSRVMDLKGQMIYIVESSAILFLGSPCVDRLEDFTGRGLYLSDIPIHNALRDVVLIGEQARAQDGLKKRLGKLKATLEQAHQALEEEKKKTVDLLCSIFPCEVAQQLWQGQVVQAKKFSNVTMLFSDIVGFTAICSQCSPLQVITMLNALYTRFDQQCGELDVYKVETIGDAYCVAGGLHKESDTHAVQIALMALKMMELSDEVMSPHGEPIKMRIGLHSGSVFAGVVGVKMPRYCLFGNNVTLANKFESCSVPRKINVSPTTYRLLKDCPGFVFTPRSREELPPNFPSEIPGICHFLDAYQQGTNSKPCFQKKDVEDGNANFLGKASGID
Experimental: Human soluble guanylate cyclase enzyme (hsGC) obtained from Enzo Inc. (P/N: ALX-201-177) was used to evaluate the activity of test compounds. The assay reactions contained 0.1 M Tris (pH 8.0), 0.5 mg/mL BSA (pH 8.0), 2 mM DTT, 2 mM MgCl2, 300 μM GTP, 1 mM 3-isobutyl-1-methylxanthine (IBMX) and 5 ng human soluble guanylate cyclase enzyme. Test compounds in DMSO were then added (2 μL, 10 or 30 μM final concentration) and incubated (water, 200 μL, 96-well plate format) at 37° C. for 30 minutes. The controls were carried out using 2 μL DMSO. After the 30 minute incubation, the reaction was stopped with the addition of 200 μL of cold methanol. The plate was then centrifuged at 3,200 rpm for 10 minutes at room temperature. Supernatants (200 μL) were collected and transferred to a new 96 well plate for analysis by HPLC LC/MS/MS.
An 8 point cGMP (Sigma-Aldrich P/N: G6129) standard curve was prepared in assay buffer ranging from 0.156-20 μM. Samples for the cGMP standard curve were then diluted with an equal volume of methanol resulting in final cGMP concentrations of 0.078-10 μM.
The cGMP standard curve was generated using GraphPad Prism Software.
Calculations: Specific Activity was determined by the amount of cGMP formed (nmoles) per mg of sGC per min. Enzyme “fold-change” was calculated by dividing Specific Activity for test compounds by Specific Activity of DMSO controls.

Thoracic aortic rings = Thoracic aortic rings assay (Example 5); design: species or system Sprague-Dawley rats; conditions: rings contracted with 100 ng/mL phenylephrine
Experimental: Thoracic aortic rings were dissected from anesthetized (isoflurane) male Sprague-Dawley rats weighing 275-299 g. Tissues were immediately transferred to ice-cold Krebs-Henseleit solution, which had been aerated with 95% O2 and 5% CO2 for 30 minutes. Following removal of connective tissue, aortic sections were cut into 4 rings (˜2 mm each) and suspended on 2 L-shaped hooks, with one hook fixed at the bottom of the tissue bath (Schuler Organ Bath, Harvard Apparatus) and the other connected to a force transducer (F30 Force Transducer, Harvard Apparatus). Baths contained Krebs Henseleit solution (10 mL) heated to 37° C. and aerated with 95% O2 and 5% CO2. Rings were brought to an initial tension of 0.3-0.5 g and gradually raised to a resting tension of 1.0 g over 60 minutes. Rings were rinsed with Krebs Henseleit solution (heated to 37° C. and aerated with 95% 02 and 5% CO2) at 15 minute intervals until a stable baseline was obtained. Rings were considered to be stable after a resting tension of 1.0 g was maintained (for approximately 10 minutes) without need for adjustment. Rings were then contracted with 100 ng/mL phenylephrine by adding 100 uL of a 10 µg/mL phenylephrine stock solution. Tissues achieving a stable contraction were then treated in a cumulative, dose dependent manner with test compounds prepared in dimethylsulfoxide (DMSO). In some cases, tissues were rinsed three times over a 5 minute period with Krebs-Heinseleit's solution (heated to 37° C. and aerated with 95% 02 and 5% CO2), allowed to stabilize at baseline, and then used for characterization of other test articles or DMSO effects. All data were collected using the HSE-ACAD software provided by Harvard Apparatus. Percent relaxation effects were calculated in Microsoft Excel using the recorded tension value of 100 ng/mL phenylephrine treatment as 0% inhibition and treatment with 100 μM 3-isobutyl-1-methylxanthine as 100% inhibition. EC50 values were calculated from concentration-response curves generated with GraphPad Prism Software.
As an alternative thoracic aortic rings assay, the procedure of Example 5 was used except that percent relaxation effects were calculated in Microsoft Excel using the recorded tension value of 100 ng/mL phenylephrine treatment as 0% inhibition and, after washing the tissue with buffer, the original resting tension of the tissue was used as 100% inhibition.
The biological data for some of the compounds of Formula I or Formula Ib, in comparison with the known compound, BAY 41-2272, as the reference compound, determined by the thoracic aorta ring assay of Example 5 are presented in Table 6 below.

With `Nc1ccnc(-n2cc(-c3ncco3)c(Cc3ccccc3F)n2)n1` [Compound I-2] the “Enzyme Activity (increase at 30 μM without SNP)” value [1] was “C (C = 5 to <10 fold increase)”, the “Aortic Ring Percent Relaxation at 1 μM” value (Thoracic aortic rings; 1 μM, resting tension = 100%) was “E (E = 60 or <80%)” and the “Aortic Ring Percent Relaxation at 3 μM” value (Thoracic aortic rings; 3 μM, resting tension = 100%) was “F (F = 80 to <100%)”. For the same molecule, the “Aortic Ring Percent Relaxation at 10 μM” value (Thoracic aortic rings; 10 μM, resting tension = 100%) was “G (G = 100 to <120%)” and the EC50 (Thoracic aortic rings; Rattus norvegicus, read-out: Aortic Ring EC50) was under 2000 nM.
